Structures can show the parent of a compound that is named as a salt. Where two headings read alike, the source gives them in different places.
Legend:
[1] = IR spectra of encapsulated compounds in stearic acid microspheres (degradation); type: physicochemical
Method: Bitter taste stimuli are prepared in a similar manner, except at a pH of 8.0. Along with stearic acid, SOA is melted at ˜100° C., quinine HCl·7H2O is melted at ˜165° C., quinine HCl·2H2O is melted at 116° C., or n-propylthiouracil (PROP) is melted at ˜150° C. before addition to a rapidly stirred buffer solution. […] The quinine content of microspheres is measured by fluorescence emission or by absorbance in the ultra-violet region. SOA content of microspheres is measured by the anthrone reaction, and PROP and PTC content of microspheres is measured by UV absorption at 275 nm.
After drying, loaded microspheres are dissolved in a solvent such as acetonitrile or acetonitrile/HEPES, and the encapsulated compound is assayed by absorption spectroscopy, fluorescence emission, or infra-red spectroscopy. The melting point is then measured in order to identify the melting point range of the microspheres. If needed, these lipid microspheres could be embedded within pullulan-based films for long term storage. Stearic acid microspheres encapsulate 2,4-D or DCMU (Diuron) at a weight-to-weight ratio of approximately 15:I. In addition, the melting point of lipid microspheres is lowered to 38-40° C. for the controlled release of these compounds from microspheres. The melting temperature range varies from 8 to 10° C.

sweet taste = conditions: cited from earlier work

degradation of components by IR spectra [1]	SMILES	also measured
no components were graded	CCCc1cc(=O)[nH]c(=S)[nH]1 [PROP, n-propylthiouracil]	
	O=[N+]([O-])c1ccc(O)c([N+](=O)[O-])c1 [2,4-dinitrophenol]	degradation by IR data ([1]; after encapsulation within stearic acid microspheres): not degraded
no components were graded	CC(=O)OC[C@H]1O[C@@](COC(C)=O)(O[C@H]2O[C@H](COC(C)=O)[C@@H](OC(C)=O)[C@H](OC(C)=O)[C@H]2OC(C)=O)[C@@H](OC(C)=O)[C@@H]1OC(C)=O [SOA, sucrose octaacetate]	
	CN(C)C(=O)Nc1ccc(Cl)c(Cl)c1 [DCMU, diuron]	degradation by IR data [1]: undegraded
no components were graded	OC[C@H]1O[C@H](O[C@]2(CCl)O[C@H](CCl)[C@@H](O)[C@@H]2O)[C@H](O)[C@@H](O)[C@H]1Cl [sucralose]	sweetness compared with sucrose (sweet taste): approximately 600 times
no components were graded	C=C[C@H]1C[N@@]2CC[C@H]1C[C@H]2[C@H](O)c1ccnc2ccc(OC)cc12 [quinine, quinine HCl]	
